According to patent US9206195B2, “Dihydrothienopyrimidines” (Boehringer Ingelheim International GmbH, priority 2011, dated 2015):

Test system: Aβ42 production (γ-secretase) in H4 neuroglioma cells stably expressing the human APP695 isoform
Assay: Screening for preferential inhibition of Aβ42 vs. total Aβ production in H4 neuroglioma cells (Meso Scale Discovery electrochemiluminescence assays on supernatant)
Type: cell-based
Conditions: for IC50: 22 hours incubation, Aβ42 in supernatant, read-out: Aβ42 cellular IC50; for Ratio Aβ(total)/Aβ42 (Aβ total IC50/Aβ42 IC50): higher ratio = more specific inhibition of Aβ42 over Aβ total
Method: Cells were plated out to near confluency. The compounds to be tested were received as 10 mM stocks in 100% DMSO. A dilution series was initially generated in 100% DMSO and then diluted 200-fold in cell culture media such that the tested concentration range was 30 μM to 0.1 nM and the final DMSO concentration was 0.5%. The diluted compounds were incubated with the cells for 22 hours in an incubator at 37° C. and 5% CO2. Aβ42 as well as Aβ total levels were then measured post-incubation from the supernatant of the cells. Aβ42 levels were determined using a specific electrochemiluminescence assay provided by Meso Scale Discovery (Catalog #L21CA-1) according to the manufacturer's protocol. Aβ total levels were likewise determined using a specific electrochemiluminescence assay provided by Meso Scale Discovery (Catalog #L21ZA-1) according to the manufacturer's protocol.
In order to absolutely define the described compounds as modulators of γ-Secretase as opposed to simply inhibitors of γ-Secretase, measurements of not only Aβ42 but also Aβ total are performed.

Structure (SMILES)	IC50 [nM]	Ratio Aβ(total)/Aβ42 (Aβ total IC50/Aβ42 IC50)
COc1cc(Nc2nc3c(c(N4CCCCC4)n2)SC2(CCCCC2)C3)ccc1-n1cnc(C)c1 [Example 13]	130	57
COc1cc(Nc2nc3c(c(N4CCCCC4)n2)[S+]([O-])C2(CCOCC2)C3)ccc1-n1cnc(C)c1 (centres unmarked) [Example 17]	530	51
COc1cc(Nc2nc3c(c(NC4CCCC4)n2)SC2(CCC2)C3)ccc1-n1cnc(C)c1 [Example 1]	190	37
COc1cc(Nc2nc(C)c3c(n2)CC2(CCC2)S3)ccc1-n1cnc(C)c1 [Example 10]	130	110
COc1cc(Nc2nc3c(c(N4CCCCC4)n2)SC2(CCOCC2)C3)ccc1-n1cnc(C)c1 [Example 16]	820	>36
COc1cc(Nc2nc3c(c(N4CCOCC4)n2)SC2(CCC2)C3)ccc1-n1cnc(C)c1 [Example 6]	140	55
COc1cc(Nc2nc3c(c(N4CCCCC4)n2)SC2(CCC2)C3)ccc1-n1cnc(C)c1 [Example 3]	90	85
COc1cc(Nc2nc3c(c(N(C)C)n2)SC2(CCCCC2)C3)ccc1-n1cnc(C)c1 [Example 12]	120	61
COc1cc(Nc2nc3c(c(C(C)C)n2)SC2(CCCCC2)C3)ccc1-n1cnc(C)c1 [Example 18]	7590	2

Further lines, results first:

IC50 [nM]	Ratio Aβ(total)/Aβ42 (Aβ total IC50/Aβ42 IC50)	Structure (SMILES)
1550	19	COc1cc(Nc2nc(C)c3c(n2)CC2(CCC2)[S+]3[O-])ccc1-n1cnc(C)c1 (centres unmarked) [Example 11]
1380	8	Cc1cc(-c2ccc(Nc3nc4c(c(N(C)C)n3)SC3(CCC3)C4)cc2)ccn1 [Example 20]
220	54	COc1cc(Nc2nc3c(c(NC4CCCC4)n2)[S+]([O-])C2(CCC2)C3)ccc1-n1cnc(C)c1 (centres unmarked) [Example 5]
1190	25	Cc1cn(-c2ccc(Nc3nc4c(c(N(C)C)n3)[S+]([O-])C3(CCC3)C4)cc2C#N)cn1 (centres unmarked) [Example 23]
19700	1	COc1cc(Nc2nc3c(c(C(C)C)n2)[S+]([O-])C2(CCCCC2)C3)ccc1-n1cnc(C)c1 (centres unmarked) [Example 21]
520	51	Cc1ncc(-c2ccc(Nc3nc4c(c(N(C)C)n3)SC3(CCC3)C4)cn2)o1 [Example 2]
770	12	Cc1cc(-c2ccc(Nc3nc4c(c(N(C)C)n3)[S+]([O-])C3(CCC3)C4)cc2)ccn1 (centres unmarked) [Example 22]
300	61	COc1cc(Nc2nc3c(c(N(C)C)n2)[S+]([O-])C2(CCCCC2)C3)ccc1-n1cnc(C)c1 (centres unmarked) [Example 15]
3250	>9	COc1cc(Nc2nc3c(c(N4CCOCC4)n2)[S+]([O-])C2(CCC2)C3)ccc1-n1cnc(C)c1 (centres unmarked) [Example 8]
130	50	COc1cc(Nc2nc3c(c(N(C)C)n2)SC2(CCC2)C3)ccc1-n1cnc(C)c1 [Example 4]
100	242	COc1cc(Nc2nc3c(c(N(C)C)n2)SC2(CCC2)C3)ccc1-c1cnc(C)o1 [Example 7]
370	55	Cc1cn(-c2ccc(Nc3nc4c(c(N(C)C)n3)SC3(CCC3)C4)cc2C#N)cn1 [Example 19]
120	100	COc1cc(Nc2nc3c(c(N4CCCCC4)n2)[S+]([O-])C2(CCCCC2)C3)ccc1-n1cnc(C)c1 (centres unmarked) [Example 14]
